# Results: BindingDB's records for doi:10.1021/jm900036m (The University of Newcastle, 2009)
# pIC50: −log10 of the molar value.
# Test: Inhibition of dynamin 1-mediated endocytosis internalization of Tf-A594 in human U2OS cells pretreated for 30 mins
row,Structure (SMILES),pIC50
1,CCCCCCCCCCNC(=O)/C(C#N)=C/c1c(C)n(CCN(C)C)c2ccccc12 [2-Cyano-N-decyl-3-[1-(2-dimethylaminoethyl)-2-methyl-1Hindol-3-yl]-acrylamide],4.24
2,CCCCCCNC(=O)/C(C#N)=C/c1c(C)n(CCCN(C)C)c2ccccc12 [2-Cyano-N-hexyl-3-[1-(3-dimethylaminopropyl)-2-methyl-1Hindol-3-yl]-acrylamide],4.84

# The next lines start with the values.
row,pIC50,Structure (SMILES)
1,5.30,CCCCCCCCNC(=O)/C(C#N)=C/c1cn(CCCN(C)C)c2ccccc12 [2-Cyano-N-octyl-3-(1-(3-dimethylaminopropyl)-1H-indol-3-yl)-acrylamide]
2,4.88,CCCCCCCCNC(=O)/C(C#N)=C/c1c(C)n(CCN(C)C)c2ccccc12 [2-Cyano-N-octyl-3-[1-(2-dimethylaminoethyl)-2-methyl-1Hindol-3-yl]-acyrlamide]
3,4.97,CCCCCCCCNC(=O)/C(C#N)=C/c1c(C)n(CCCN(C)C)c2ccccc12 [2-Cyano-N-octyl-3-[1-(3-dimethylaminopropyl)-2-methyl-1Hindol-3-yl]-acrylamide]
